Laboratory results: US7893068B2, “Physiologically active substances” (Mercian Corporation, priority 2002, dated 2011)
Where two headings read alike, the source gives them in different places.

What was measured:
[1] = Body weight loss (acute toxicity) in the WiDr tumor model; type: in vivo, nude mice; settings: intravenous 5 consecutive days, body weight relative to Day 1
Description: (§1) In order to study solid tumor growth inhibitory activities of the compounds of the formula (I) in vivo, WiDr human colon cancer cells were implanted subcutaneously into the flanks of nude mice. […]. The animals were grouped so that the average of the volumes of the respective groups became uniform, when it reached about 100 mm^3. Control group was made up of 10 mice and 11107D-administering groups were made up of 5 mice. The derivatives were administered for the administering groups for 5 consecutive days by intravenous injection so as to be any of 0.625 mg, 1.25 mg, 2.5 mg, 5 mg and 10 mg/kg/day, and a vehicle was administered to the control group. The tumor volumes on Day 15 were measured, and relative tumor volume ratios (T/C %) were determined setting the tumor volume of the control group as 100%. The body weights on Day 1, Day 5, Day 8, Day 12 and Day 15 (or 16) were measured, and relative body weight variations were determined setting the body weight on Day 1 as 100%. The relative body weight ratios on the day where the body weight reached the minimum were defined as the minimum relative weight ratios and are shown in Table 3.

[2] = Stability in an aqueous solution (HPLC residual ratio); settings: for Peak area (mAU × sec) after 24 hours / The residual ratios (%): Britton-Robinson's buffer pH 7, 25° C., 24 hours; for Peak area (mAU × sec) initial: Britton-Robinson's buffer pH 7, before incubation
Method: The compounds of the formula (I) were dissolved in DMSO in concentrations of 10 to 20 mM, and these were diluted about 500 folds with Britton-Robinson's buffer solution of pH 7. Each of the solutions as sample solutions was incubated at 25° C. for 24 hours.
The sample solutions were analyzed by high performance liquid chromatography before and after incubation, and the residual ratios of the tested substances in the sample solutions after incubation were determined from the peak areas of the obtained chromatograms.

[3] = test system: WiDr human colon cancer cells; assay: Growth inhibitory activities on WiDr human colon cancer cells (MTT); type: cell-based; settings: 72 h, three days incubation
Method: WiDr human colon cancer cells cultured in DULBECCO-modified eagle medium (DMEM; manufactured by SIGMA Co., Ltd.) containing 10% fetal calf serum, penicillin (100 unit/mL) and streptomycin (100 μg/mL) were dispensed in 96-well plates by 2×10^3 cells/well. After culturing overnight in a CO2 incubator, 20 μL of the above-mentioned incubation solution containing the test compound diluted with 3-fold succession was added, followed by incubation. After three days, 50 μL of 3.3 mg/mL MTT solution was added, followed by culturing for further one hour. Then, formazan formed by the reduction by the action of living cells was extracted with 100 μL of DMSO, the absorbance (A540/A660) was determined and was set as the index of the number of living cells.
The concentrations of the compounds of the formula (I) at which the growth of WiDr human colon cancer cells are inhibited 50% were determined.

[4] = test system: WiDr human colon cancer cells; assay: Solid tumor growth inhibitory activities, WiDr human colon tumor model in nude mice; type: in vivo; settings: Mus musculus, 360 h
Description: as §1

VEGF promoter = assay: VEGF transcription-suppressing activity (VEGF promoter-PLAP reporter, U251/1-8 cells, hypoxia); type: cell-based; settings: Homo sapiens, read-out: VEGF transcription-suppressing activities (IC50: nM)
Description: In order to prepare reporter system reflecting transcription from VEGF promoter, VEGF promoter sequence was cloned, and inserted in secretory alkaline phosphatase (PLAP) vector to construct reporter vector.
In order to obtain the promoter region of human VEGF, VEGF genomic DNA was cloned from phage library. PCR primers having the sequences described in Sequence Numbers 1 and 2 were designed based on VEGF cDNA (GenBank accession number: X62568) and a fragment having about 340 bp was obtained by carrying out PCR. Human genomic phage library (Human genomic library, Clontech Co.) was screened using this as a probe to obtain VEGF genomic DNA. The DNA was digested by EcoRI, and the resultant fragments were inserted in the EcoRI site of pUC18. Finally, pUC18-VEGFA containing about 5.4 kb of VEGF 5′ flanking region was obtained. The pUC18-VEGFA was digested by KpnI/NheI, VEGF promoter region of about 2.3 kb obtained was inserted in the multi cloning site KpnI/NheI of secretory alkaline phosphatase (PLAP) vector (Goto et al, Mol. Pharmacol., 49, 860-873, 1996), and thus, VEGF-PLAP vector was constructed.
The above-mentioned VEGF-PLAP vector was transfected in the U251 cell cultured in the DULBECCO-modified eagle medium (DMEM; manufactured by SIGMA Co., Ltd.) containing 10% fetal calf serum, and the cells were cultured in the presence of 1 mg/mL G418 (Merck Co.) to establish G418 resistant stable clone (U251/1-8 cell).
It was confirmed that U251/1-8 cell secreted PLAP under hypoxic condition (2% O2 incubator) in the same manner as in the report (Cell. Mol. Biol. Res. 40, 35-39, 1994) and was a reporter system reflecting the transcription from VEGF promoter. The screening of the compound suppressing VEGF production which was induced by hypoxic stimulation was carried out below using the clone.
In order to remove the influence of alkaline phosphates in serum, U251/1-8 cells were rinsed twice with the adequate amount of PBS (Phosphate buffered saline), diluted in the DMEM medium containing 10% of serum in which alkaline phosphates was inactivated by the treatment of 65° C. for 20 min., and dispensed in 96-well plates by 4×10^4 cells/180 μL.
After culturing at 37° C. overnight in a CO2 incubator (5% CO2), 20 μL of the above-mentioned incubation solution containing the test compound diluted with 3-fold succession was added, and then they were incubated in a hypoxic (2% […]) incubator for 18 hours. With respect to the PLAP activity in the culture supernatants, 10 μL of the supernatants was added to 50 μL of 0.28 M Na2CO3—NaHCO3 buffer solution (pH 10.0, 8.0 mM MgSO4), and finally 50 μL of alkaline phosphatase substrate (LUMISTEIN, Genomescience Co.) was added. After reacting for one hour, the alkaline phosphatase activity of the PLAP was measured by detecting the chemical luminescence by a micro plate reader (Perkin-Elmer Co.). The PLAP activity under normoxia was set as 0%, the PLAP activity of cell which was treated under hypoxia was set as 100%, and the concentration suppressing the PLAP activity by 50% was set as the IC50 value of PLAP. The IC50 values of 11107D derivatives shown in Examples were measured, and the IC50 values of representative 11107D derivatives are shown in Table 1.

[5] = Physico-chemical properties: solubility; type: physicochemical
Method: The physico-chemical properties of 11107D are shown below. The structure of 11107D was determined as shown below.

[6] = test system: HL-60 human leukemia cell; settings: HL-60, RPM-1640 medium; cited from earlier work
P388 mouse leukemia cell [7] = settings: P388, RPM-1640 medium; cited from earlier work
[8] = test system: L-1210 mouse leukemia cell; settings: L-1210, RPM-1640 medium; cited from earlier work
P388 mouse leukemia cell [9] = settings: cited from earlier work
[10] = iv, read-out: Growth inhibitory activities in the WiDr human solid tumor model (T/C %)

For `CCC(O)C(C)C1OC1CC(C)(O)/C=C/C=C(\C)C1OC(=O)CC(O)CCC(C)(O)C(OC(=O)N2CCN(C3CCCCCC3)CC2)/C=C/C1C` (stereo not drawn) [Compound 45, (8E,12E,14E)-7-((4-Cycloheptylpiperazin-1-yl)carbonyl)oxy-3,6,16,21-tetrahydroxy-6,10,12,16,20-pentamethyl-18,19-epoxytricosa-8,12,14-trien-11-olide], the “the minimum relative weight ratios” value ([1]; Dose 5.0 mg/kg) was 0.90, the “Peak area (mAU × sec) after 24 hours” value [2] was 5024 mAU × sec and the “The residual ratios (%)” value [2] was 95.0%. The “Peak area (mAU × sec) initial” value [2] was 5291 mAU × sec, the IC50 [3] was 0.7 nM and the response vs control in vivo at 5 mg/kg ([4]; Dose 5.0 mg/kg, intravenous injection 5 consecutive days, tumor volume Day 15, read-out: Growth inhibitory activities in the WiDr human solid tumor model (T/C %)) was 20%. For the same compound, the IC50 (VEGF promoter; U-251, U251/1-8 cells, hypoxic incubator 18 hours, PLAP activity) was 1.9 nM.
For `CCC(O)C(C)C1OC1CC(C)(O)/C=C/C=C(\C)C1OC(=O)CC(O)CCC(C)(O)C(OC(=O)N(C)CCN(CC)CC)/C=C/C1C` (stereo not drawn) [Compound 75, (8E,12E,14E)-7-(N-(2-(N′,N′-Diethylamino)ethyl)-N-methylcarbamoyloxy)-3,6,16,21-tetrahydroxy-6,10,12,16,20-pentamethyl-18,19-epoxytricosa-8,12,14-trien-11-olide], the “the minimum relative weight ratios” value ([1]; Dose 5.0 mg/kg) was 0.82, the “Peak area (mAU × sec) after 24 hours” value [2] was 2478 mAU × sec and the “The residual ratios (%)” value [2] was 95.5%. The “Peak area (mAU × sec) initial” value [2] was 2594 mAU × sec, the IC50 [3] was 4.1 nM and the response vs control in vivo at 5 mg/kg [4, 10] was 17%. It also gave an IC50 (VEGF promoter; U-251, 18 h) of 9.1 nM.
In the case of `CCC(O)C(C)C1OC1CC(C)(O)/C=C/C=C(\C)C1OC(=O)CC(O)CCC(C)(OC)C(OC(=O)N2CCC(N3CCCCC3)CC2)/C=C/C1C` (stereo not drawn) [Compound 109, (8E,12E,14E)-3,16,21-Trihydroxy-6-methoxy-6,10,12,16,20-pentamethyl-7-((4-(piperidin-1-yl)piperidin-1-yl)carbonyl)oxy-18,19-epoxytricosa-8,12,14-trien-11-olide], the “the minimum relative weight ratios” value ([1]; Dose 0.625 mg/kg) is reported as 0.89, the “Peak area (mAU × sec) after 24 hours” value [2] is reported as 2111 mAU × sec and the “The residual ratios (%)” value [2] is reported as 94.9%. The “Peak area (mAU × sec) initial” value [2] was 2224 mAU × sec, the IC50 [3] was 1.5 nM and the response vs control in vivo at 0.625 mg/kg [4, 10] was 36%. It also gave an IC50 (VEGF promoter; U-251, 18 h) of 3.3 nM.
In the case of `CCC(OC)C(C)C1OC1CC(C)(O)/C=C/C=C(\C)C1OC(=O)CC(O)CCC(C)(O)C(OC(=O)N2CCN(C)CC2)/C=C/C1C` (stereo not drawn) [Compound 131, (8E,12E,14E)-3,6,16-Trihydroxy-21-methoxy-6,10,12,16,20-pentamethyl-7-((4-methylpiperazin-1-yl)carbonyl)oxy-18,19-epoxytricosa-8,12,14-trien-11-olide], the “the minimum relative weight ratios” value ([1]; Dose 2.5 mg/kg) is reported as 0.83, the “Peak area (mAU × sec) after 24 hours” value [2] is reported as 157 mAU × sec and the “The residual ratios (%)” value [2] is reported as 93.2%. The “Peak area (mAU × sec) initial” value [2] was 168 mAU × sec, the IC50 [3] was 0.7 nM and the response vs control in vivo at 2.5 mg/kg [4, 10] was 28%. The IC50 (VEGF promoter; U-251, 18 h) was 1.7 nM.
With `CCC(O)C(C)C1OC1CC(C)(O)/C=C/C=C(\C)C1OC(=O)CC(O)CCC(C)(O)C(OC(C)=O)/C=C/C1C` (stereo not drawn) [Compound 11107D, (8E,12E,14E)-7-acetoxy-3,6,16,21-tetrahydroxy-6,10,12,16,20-pentamethyl-18,19-epoxytricosa-8,12,14-trien-11-olide] the “Solubility in organic solvents” value ([5]; dimethyl sulfoxide, pyridine, methanol and acetone) was “soluble”, the Solubility in water ([5]; water) was “slightly soluble” and the “Peak area (mAU × sec) after 24 hours” value [2] was 3817 mAU × sec. The “The residual ratios (%)” value [2] was 95.6%, the “Peak area (mAU × sec) initial” value [2] was 3994 mAU × sec and the “Stability in an aqueous solution” value [2] was “stable even in an aqueous solution”.
In the case of `CCC(OC)C(C)C1OC1C(O)C(C)/C=C/C=C(\C)C1OC(=O)CC(O)CCC(C)(O)C(OC(C)=O)/C=C/C1C` (stereo not drawn) [FD895, reference compound], the “Peak area (mAU × sec) after 24 hours” value [2] is reported as 993 mAU × sec, the “The residual ratios (%)” value [2] is reported as 83% and the “Peak area (mAU × sec) initial” value [2] is reported as 1197 mAU × sec. The “Stability in an aqueous solution” value [2] was “unstable in an aqueous solution”, the “in vitro cell growth inhibitory activities” value [6] was “has in vitro cell growth inhibitory activities” and the “in vitro cell growth inhibitory activities” value (P388 mouse leukemia cell [7]) was “has in vitro cell growth inhibitory activities”. For the same compound, the “in vitro cell growth inhibitory activities” value [8] was “has in vitro cell growth inhibitory activities” and the “antitumor activities in an in vivo experiment” value (P388 mouse leukemia cell [9]) was “did not show antitumor activities”.
